In this assay the test system is MV-4-11 cells. Description: Gene expression microarray analysis (Affymetrix PrimeView) and GSEA. It counts as cell-based, human. On the set-up: RFU PODN (11730768_x_at) / Fold change /veh PODN (11730768_x_at) / RFU LINC00158 (11744669_a_at) / Fold change /veh LINC00158 (11744669_a_at) / RFU DUSP10 (11751237_a_at) / Fold change /veh DUSP10 (11751237_a_at) / RFU ID3 (11757404_x_at) / Fold change /veh ID3 (11757404_x_at) / RFU PLEKHG5 (11737974_s_at) / Fold change /veh PLEKHG5 (11737974_s_at) / RFU LRRC4B (11730491_at) / Fold change /veh LRRC4B (11730491_at) / RFU GIMAP4 (11747438_a_at) / Fold change /veh GIMAP4 (11747438_a_at) / RFU KRT8 (11758183_x_at) / Fold change /veh KRT8 (11758183_x_at) / RFU CNN1 (11734310_a_at) / Fold change /veh CNN1 (11734310_a_at) / RFU VPS37D (11726825_at) / Fold change /veh VPS37D (11726825_at) / RFU C10orf10 (11716522_x_at) / Fold change /veh C10orf10 (11716522_x_at) / RFU KIR2DL2 /// KIR2DL4 /// KIR2DL5A /// KIR2DL5B /// KIR2DS1 /// KIR2DS2 /// KIR2DS3 /// KIR2DS4 /// KIR3DL3 /// KIR3DL3 /// KIR3DS1 (11738374_at) / Fold change /veh KIR2DL2 /// KIR2DL4 /// KIR2DL5A /// KIR2DL5B /// KIR2DS1 /// KIR2DS2 /// KIR2DS3 /// KIR2DS4 /// KIR3DL3 /// KIR3DL3 /// KIR3DS1 (11738374_at) / RFU C1QL1 (11718748_at) / Fold change /veh C1QL1 (11718748_at) / RFU TMPRSS4 (11747572_a_at) / Fold change /veh TMPRSS4 (11747572_a_at) / RFU HAMP (11756126_x_at) / Fold change /veh HAMP (11756126_x_at) / RFU RNFT2 (11725882_a_at) / Fold change /veh RNFT2 (11725882_a_at) / RFU NR4A2 (11747474_a_at) / Fold change /veh NR4A2 (11747474_a_at) / RFU ABCC12 (11746883_a_at) / Fold change /veh ABCC12 (11746883_a_at) / RFU TMEM136 (11760407_x_at) / Fold change /veh TMEM136 (11760407_x_at) / RFU CLDN22 /// WWC2 (11732394_at) / Fold change /veh CLDN22 /// WWC2 (11732394_at) / RFU HLA-DPB1 (11760878_x_at) / Fold change /veh HLA-DPB1 (11760878_x_at) / RFU SPINT1 (11716480_a_at) / Fold change /veh SPINT1 (11716480_a_at) / RFU GAP43 (11754022_s_at) / Fold change /veh GAP43 (11754022_s_at) / RFU A4GNT (11735810_at) / Fold change /veh A4GNT (11735810_at) / RFU PRB3 (11715151_x_at) / Fold change /veh PRB3 (11715151_x_at) / RFU TUBB4B (11761932_at) / Fold change /veh TUBB4B (11761932_at) / RFU CAPN14 (11732068_a_at) / Fold change /veh CAPN14 (11732068_a_at) / RFU TMCC2 (11721928_a_at) / Fold change /veh TMCC2 (11721928_a_at) / RFU IRGQ (11745062_a_at) / Fold change /veh IRGQ (11745062_a_at) / RFU FAM174B (11720279_a_at) / Fold change /veh FAM174B (11720279_a_at) / RFU TMPRSS4 (11748680_a_at) / Fold change /veh TMPRSS4 (11748680_a_at) / RFU FAM212B (11763350_a_at) / Fold change /veh FAM212B (11763350_a_at) / RFU PLEKHG5 (11743358_a_at) / Fold change /veh PLEKHG5 (11743358_a_at) / RFU ZSCAN30 (11745921_a_at) / Fold change /veh ZSCAN30 (11745921_a_at) / RFU CMKLR1 (11741424_a_at) / Fold change /veh CMKLR1 (11741424_a_at) / RFU LOC101060620 /// MAPK8IP1 (11723275_at) / Fold change /veh LOC101060620 /// MAPK8IP1 (11723275_at) / RFU SPTSSB (11747773_x_at) / Fold change /veh SPTSSB (11747773_x_at) / RFU PRSS12 (11739890_at) / Fold change /veh PRSS12 (11739890_at) / RFU BIN1 (11741810_x_at) / Fold change /veh BIN1 (11741810_x_at) / RFU WNT11 (11732464_a_at) / Fold change /veh WNT11 (11732464_a_at) / RFU C10orf10 (11716521_a_at) / Fold change /veh C10orf10 (11716521_a_at) / RFU C5orf56 (11738089_at) / Fold change /veh C5orf56 (11738089_at) / RFU CYB561 (11721691_x_at) / Fold change /veh CYB561 (11721691_x_at) / RFU ANKRD19P (11752326_a_at) / Fold change /veh ANKRD19P (11752326_a_at) / RFU OR2T12 /// OR2T33 /// OR2T8 (11738714_s_at) / Fold change /veh OR2T12 /// OR2T33 /// OR2T8 (11738714_s_at) / RFU VCAN (11748164_a_at) / Fold change /veh VCAN (11748164_a_at) / RFU JSRP1 (11732532_at) / Fold change /veh JSRP1 (11732532_at) / RFU KRTAP10-11 (11738290_x_at) / Fold change /veh KRTAP10-11 (11738290_x_at) / RFU MYO3A (11730013_a_at) / Fold change /veh MYO3A (11730013_a_at) / RFU EBF3 (11725865_a_at) / Fold change /veh EBF3 (11725865_a_at) / RFU CAMK2N1 (11719241_x_at) / Fold change /veh CAMK2N1 (11719241_x_at) / RFU C5orf56 (11738088_a_at) / Fold change /veh C5orf56 (11738088_a_at) / RFU OLFML3 (11715873_a_at) / Fold change /veh OLFML3 (11715873_a_at) / RFU LOC100653217 /// NTM (11731650_a_at) / Fold change /veh LOC100653217 /// NTM (11731650_a_at) / RFU MAPK11 (11762145_a_at) / Fold change /veh MAPK11 (11762145_a_at) / RFU FIZ1 (11724087_x_at) / Fold change /veh FIZ1 (11724087_x_at) / RFU OASL (11726364_x_at) / Fold change /veh OASL (11726364_x_at) / RFU SOX15 (11748057_x_at) / Fold change /veh SOX15 (11748057_x_at) / RFU CD79A (11719716_a_at) / Fold change /veh CD79A (11719716_a_at) / RFU HIST1H1D (11736915_at) / Fold change /veh HIST1H1D (11736915_at) / RFU CASKIN2 (11723855_a_at) / Fold change /veh CASKIN2 (11723855_a_at) / RFU LOC730098 (11760151_x_at) / Fold change /veh LOC730098 (11760151_x_at) / RFU OR4N2 (11742367_at) / Fold change /veh OR4N2 (11742367_at) / RFU PRRT2 (11749266_a_at) / Fold change /veh PRRT2 (11749266_a_at) / RFU SNX32 (11753110_a_at) / Fold change /veh SNX32 (11753110_a_at) / RFU CDHR5 (11726645_a_at) / Fold change /veh CDHR5 (11726645_a_at) / RFU RCAN1 (11760418_a_at) / Fold change /veh RCAN1 (11760418_a_at) / RFU FAM167A (11723789_a_at) / Fold change /veh FAM167A (11723789_a_at) / RFU FAM26E (11764081_at) / Fold change /veh FAM26E (11764081_at) / RFU ISYNA1 (11749810_s_at) / Fold change /veh ISYNA1 (11749810_s_at) / RFU ACY1 (11761880_at) / Fold change /veh ACY1 (11761880_at) / RFU 11764098_at / Fold change /veh 11764098_at / RFU SAMD14 (11745864_x_at) / Fold change /veh SAMD14 (11745864_x_at) / RFU NPB (11741838_a_at) / Fold change /veh NPB (11741838_a_at) / RFU TMPRSS6 (11731388_a_at) / Fold change /veh TMPRSS6 (11731388_a_at) / RFU KRTAP10-2 (11738614_at) / Fold change /veh KRTAP10-2 (11738614_at) / RFU ARHGAP8 /// PRR5-ARHGAP8 (11727945_x_at) / Fold change /veh ARHGAP8 /// PRR5-ARHGAP8 (11727945_x_at) / RFU KRTAP5-7 /// NADSYN1 (11734609_at) / Fold change /veh KRTAP5-7 /// NADSYN1 (11734609_at) / RFU RASL12 (11751679_a_at) / Fold change /veh RASL12 (11751679_a_at) / RFU CDKN2B (11736163_a_at) / Fold change /veh CDKN2B (11736163_a_at) / RFU PRF1 (11729649_at) / Fold change /veh PRF1 (11729649_at) / RFU, ZNF638 /// ZNF638-IT1 / Fold change vs veh, ZNF638 /// ZNF638-IT1 / RFU, PANK3 / Fold change vs veh, PANK3 / RFU, SH3YL1 / Fold change vs veh, SH3YL1 / RFU, ZEB2 / Fold change vs veh, ZEB2 / RFU, NRIP1 / Fold change vs veh, NRIP1 / RFU, PTTG1IP / Fold change vs veh, PTTG1IP / RFU, CAPN2 / Fold change vs veh, CAPN2 / RFU, MED14 / Fold change vs veh, MED14 / RFU, SNORA58 / Fold change vs veh, SNORA58 / RFU, C1orf63 / Fold change vs veh, C1orf63 / RFU, LRRFIP1 / Fold change vs veh, LRRFIP1 / RFU, NDUFAF7 / Fold change vs veh, NDUFAF7 / RFU, SLC12A2 / Fold change vs veh, SLC12A2 / RFU, IBTK / Fold change vs veh, IBTK / RFU, ESF1 / Fold change vs veh, ESF1 / Fold change vs veh, TMEM50B / RFU, TAOK1 / Fold change vs veh, TAOK1 / RFU, ACBD3 / Fold change vs veh, ACBD3 / RFU, TMA16 / Fold change vs veh, TMA16 / RFU, RWDD3 / Fold change vs veh, RWDD3 / RFU, BCAT1 / Fold change vs veh, BCAT1 / RFU, EDEM3 / Fold change vs veh, EDEM3 / RFU, TMEM33 / Fold change vs veh, TMEM33 / RFU, WDR75 / Fold change vs veh, WDR75 / RFU, AHCTF1 / Fold change vs veh, AHCTF1 / RFU, TFRC / Fold change vs veh, TFRC / RFU, ZDHHC17 / Fold change vs veh, ZDHHC17 / RFU, NOM1 / Fold change vs veh, NOM1 / RFU, ARL8B / Fold change vs veh, ARL8B / RFU, ZBTB11 / Fold change vs veh, ZBTB11 / RFU, TAMM41 / Fold change vs veh, TAMM41 / RFU, KIAA1704 /// LOC100996395 / Fold change vs veh, KIAA1704 /// LOC100996395 / RFU, ING1 / Fold change vs veh, ING1 / RFU, TRMT61B / Fold change vs veh, TRMT61B / RFU, FUBP3 / Fold change vs veh, FUBP3 / RFU, TP53 / Fold change vs veh, TP53 / RFU, TNKS2 / Fold change vs veh, TNKS2 / RFU, ZFP14 / Fold change vs veh, ZFP14 / RFU, ACTR2 / Fold change vs veh, ACTR2 / RFU, PPP3R1 / Fold change vs veh, PPP3R1 / RFU, PIK3R1 / Fold change vs veh, PIK3R1 / RFU, HNRNPA1 / Fold change vs veh, HNRNPA1 / RFU, RNF170 / Fold change vs veh, RNF170 / RFU, ZNF28 / Fold change vs veh, ZNF28 / RFU, RNGTT / Fold change vs veh, RNGTT / RFU, OGT / Fold change vs veh, OGT / RFU, BRD1 / Fold change vs veh, BRD1 / RFU, MARS / Fold change vs veh, MARS / RFU, ZNF655 / Fold change vs veh, ZNF655 / RFU, FAHD1 / Fold change vs veh, FAHD1 / RFU, BDP1 / Fold change vs veh, BDP1 / RFU, LRRCC1 / Fold change vs veh, LRRCC1 / RFU, ARID1A / Fold change vs veh, ARID1A / RFU, ZNF146 / Fold change vs veh, ZNF146 / RFU, ZNF330 / Fold change vs veh, ZNF330 / RFU, GPN3 / Fold change vs veh, GPN3 / RFU, C9orf123 / Fold change vs veh, C9orf123 / RFU, N4BP2L2 / Fold change vs veh, N4BP2L2 / RFU, ARFIP1 / Fold change vs veh, ARFIP1 / RFU, FAM179B / Fold change vs veh, FAM179B / RFU, BCL10 / Fold change vs veh, BCL10 / RFU, UHRF1BP1L / Fold change vs veh, UHRF1BP1L / RFU, BET1 / Fold change vs veh, BET1 / RFU, CNOT2 / Fold change vs veh, CNOT2 / RFU, ZNF268 / Fold change vs veh, ZNF268 / Fold change vs veh, ZNF507 / RFU, DGCR2 / Fold change vs veh, DGCR2 / RFU, WDSUB1 / Fold change vs veh, WDSUB1 / Fold change vs veh, HSP90B1 /// MIR3652 / RFU, ADSS / Fold change vs veh, ADSS / RFU, GK / Fold change vs veh, GK / RFU, ZNF148 / Fold change vs veh, ZNF148 / RFU, TAF9 / Fold change vs veh, TAF9 / RFU, SLC1A5 / Fold change vs veh, SLC1A5 / RFU, SLMO2 / Fold change vs veh, SLMO2 / RFU, ABCC4 / Fold change vs veh, ABCC4 / RFU, LOC101060439 /// RAP1B / Fold change vs veh, LOC101060439 /// RAP1B / RFU, RFX7 / Fold change vs veh, RFX7 / RFU, GTPBP10 / Fold change vs veh, GTPBP10 / RFU, CNEP1R1 / Fold change vs veh, CNEP1R1 / RFU, BIVM-ERCC5 /// ERCC5 / Fold change vs veh, BIVM-ERCC5 /// ERCC5 / RFU, ILF3 / Fold change vs veh, ILF3 / RFU 11762660_at / Fold change /veh 11762660_at / RFU VCAN (11757783_s_at) / Fold change /veh VCAN (11757783_s_at) / RFU DDX43 (11728927_at) / Fold change /veh DDX43 (11728927_at) / RFU KRT8 (11758188_x_at) / Fold change /veh KRT8 (11758188_x_at) / RFU NKD1 (11759106_at) / Fold change /veh NKD1 (11759106_at) / RFU SRD5A1 (11742802_a_at) / Fold change /veh SRD5A1 (11742802_a_at) / RFU TPSAB1 /// TPSB2 (11721975_s_at) / Fold change /veh TPSAB1 /// TPSB2 (11721975_s_at) / RFU GSTM3 (11746129_a_at) / Fold change /veh GSTM3 (11746129_a_at) / RFU IL23R (11737362_x_at) / Fold change /veh IL23R (11737362_x_at) / RFU TMEM51 (11727254_a_at) / Fold change /veh TMEM51 (11727254_a_at) / RFU PIWIL2 (11732686_x_at) / Fold change /veh PIWIL2 (11732686_x_at) / RFU ORM1 (11744905_x_at) / Fold change /veh ORM1 (11744905_x_at) / RFU CCDC152 (11743942_at) / Fold change /veh CCDC152 (11743942_at) / RFU ECM1 (11717891_a_at) / Fold change /veh ECM1 (11717891_a_at) / RFU IL23R (11748794_a_at) / Fold change /veh IL23R (11748794_a_at) / RFU TNFAIP8L3 (11732012_x_at) / Fold change /veh TNFAIP8L3 (11732012_x_at) / RFU MBOAT4 (11741988_at) / Fold change /veh MBOAT4 (11741988_at) / RFU 11764193_at / Fold change /veh 11764193_at / RFU TMEM53 (11763286_at) / Fold change /veh TMEM53 (11763286_at) / RFU MAGEB2 (11727129_at) / Fold change /veh MAGEB2 (11727129_at) / RFU TMEM200A (11744735_a_at) / Fold change /veh TMEM200A (11744735_a_at) / RFU CCDC152 (11751479_a_at) / Fold change /veh CCDC152 (11751479_a_at) / RFU FAM211A (11726209_a_at) / Fold change /veh FAM211A (11726209_a_at) / RFU RGS16 (11746705_a_at) / Fold change /veh RGS16 (11746705_a_at) / RFU VCAN (11755009_s_at) / Fold change /veh VCAN (11755009_s_at) / RFU RHOB (11743442_s_at) / Fold change /veh RHOB (11743442_s_at) / RFU RGS16 (11720943_a_at) / Fold change /veh RGS16 (11720943_a_at) / RFU RGS16 (11720944_at) / Fold change /veh RGS16 (11720944_at) / RFU, VPS4B / Fold change vs veh, VPS4B / RFU, CREB1 / Fold change vs veh, CREB1 / RFU, DNAJC13 / Fold change vs veh, DNAJC13 / RFU, GNAQ / Fold change vs veh, GNAQ / RFU, CDK5R1 / Fold change vs veh, CDK5R1 / RFU, ZRANB3 / Fold change vs veh, ZRANB3 / RFU, CUL4A / Fold change vs veh, CUL4A / RFU, CCNY / Fold change vs veh, CCNY / RFU, UFL1 / Fold change vs veh, UFL1 / RFU, COG3 / Fold change vs veh, COG3 / RFU, DIAPH2 / Fold change vs veh, DIAPH2 / RFU, SKA2 / Fold change vs veh, SKA2 / RFU, AFF3 / Fold change vs veh, AFF3 / RFU, LMF1 / Fold change vs veh, LMF1 / RFU, IPO11 / Fold change vs veh, IPO11 / RFU, DFFB / Fold change vs veh, DFFB / RFU, FOXP1 / Fold change vs veh, FOXP1 / RFU, CARD8 / Fold change vs veh, CARD8 / RFU, STRN3 / Fold change vs veh, STRN3 / RFU, ADK / Fold change vs veh, ADK / RFU, RASSF2 / Fold change vs veh, RASSF2 / RFU, WIPF1 / Fold change vs veh, WIPF1 / RFU, LARP1B / Fold change vs veh, LARP1B / RFU, RASA1 / Fold change vs veh, RASA1 / RFU, RB1 / Fold change vs veh, RB1 / RFU, PPFIA1 / Fold change vs veh, PPFIA1 / RFU, MAT2A / Fold change vs veh, MAT2A / RFU, CCT5 / Fold change vs veh, CCT5 / RFU, WDR92 / Fold change vs veh, WDR92 / RFU, CUX1 / Fold change vs veh, CUX1 / RFU, TTC7A / Fold change vs veh, TTC7A / RFU, TMEM135 / Fold change vs veh, TMEM135 / RFU, DEPTOR / Fold change vs veh, DEPTOR / RFU, CPM / Fold change vs veh, CPM / RFU, DNAJB6 / Fold change vs veh, DNAJB6 / RFU, CACNA2D3 / Fold change vs veh, CACNA2D3 / RFU, DTX4 / Fold change vs veh, DTX4 / RFU, TFCP2 / Fold change vs veh, TFCP2 / RFU, GMCL1 /// GMCL1P1 / Fold change vs veh, GMCL1 /// GMCL1P1 / RFU, AEBP2 / Fold change vs veh, AEBP2 / RFU, SNHG1 /// SNORD22 /// SNORD25 /// SNORD26 /// SNORD27 /// SNORD28 /// SNORD29 /// SNORD31 / Fold change vs veh, SNHG1 /// SNORD22 /// SNORD25 /// SNORD26 /// SNORD27 /// SNORD28 /// SNORD29 /// SNORD31 / Fold change (Aza/veh), C12orf56 (ProbeSet 11735607_a_at) / Fold change (ACY-1035/veh), C12orf56 (ProbeSet 11735607_a_at) / Fold change (Aza/veh), FGFR1OP (ProbeSet 11751329_s_at) / Fold change (ACY-1035/veh), FGFR1OP (ProbeSet 11751329_s_at) / Fold change (Aza/veh), VPS36 (ProbeSet 11739960_a_at) / Fold change (ACY-1035/veh), VPS36 (ProbeSet 11739960_a_at) / RFU SYPL1 (11715823_x_at) / Fold change /veh SYPL1 (11715823_x_at) / RFU IGFBP7 (11715501_s_at) / Fold change /veh IGFBP7 (11715501_s_at) / RFU REEP3 (11722064_at) / Fold change /veh REEP3 (11722064_at) / RFU IGLL1 (11728026_x_at) / Fold change /veh IGLL1 (11728026_x_at): dose or concentration left out as unconfirmed. As to conditions: ProbeSet 11755425_a_at; LIST B.

`Nc1ncn([C@@H]2O[C@H](CO)[C@@H](O)[C@H]2O)c(=O)n1` [azacitidine]: the “Fold change vs veh, FAM179B” value stood at 0.87.

These data come from publication PMC5218480 (PLoS ONE, 2017).
